{"source": "patent US20260125374A1", "about": "“PI3K-ALPHA INHIBITORS AND METHODS OF MAKING AND USING THE SAME” (Relay Therapeutics, Inc., priority 2021, published 2026)", "key": {"[1]": {"assay": "Solubility study at 37° C. (buffer, water, bio-relevant media, MeOH/DCM)", "format": "physicochemical", "conditions": "listed as I-4 Form A", "procedure": "In addition, residual solids were checked by chiral HPLC to confirm whether racemization occurs.\nAccurate 4 mg of I-1 Form A, 5.13 mg of I-3 Form A, 4.63 mg of I-4 Form A was weighed into a 8 mL glass vial, respectively. 2 mL of solubility medium was added. The salt amount used is equivalent to 4 mg anhydrous free form. Obtained suspensions/solutions were stirred at 37° C. at 400 rpm for 2 hours and 24 hours and then centrifuged at 37° C. at 14,000 rpm for 5 min. Supernatants were analyzed by UPLC and PH meter for solubility and pH value, respectively. Residual solids (wet cakes) were characterized by XRPD to determine physical form and then analyzed by HPLC for chiral purity."}, "[2]": {"assay": "Hygroscopicity by DVS", "format": "physicochemical", "procedure": "• Method 1 (for I-1 Form A and I-3 Form A) • Instrument Intrinsic, Advantage or Adventure • Total gas flow 200 sccm • Oven temperature 25° C. • Solvent Water • Method Cycle: 40-0-95-0-40% RH • Stage Step: 10% • Equilibrium: 0.002 dm/dt (%/min) • Minimum dm/dt stability duration: 60 min • Maximum dm/dt stage time: 360 min • Method 2 (for I-4 Form A) • Instrument Intrinsic, Advantage or Adventure • Total gas flow 200 sccm • Oven temperature 25° C. • Solvent Water • Method Cycle: 40-95-0-95-40% RH • Stage Step: 10% • Equilibrium: 0.002 dm/dt (%/min) • Minimum dm/dt stability duration: 60 min • Maximum dm/dt stage time: 360 min\nI-1 Form A is hygroscopic. It absorbs about 5.5% water by weight from 40% RH to 95% RH. […] It absorbs about 40% water by weight from 40% RH to 95% RH. Form changed after the DVS test. […] It starts to absorb water when RH>40% and potential hydrate form generates at high humidity based on DVS data. The sorption and desorption are reversible.\nWater sorption and desorption behavior of I-1 Form A, I-3 Form A, and I-4 Form A was investigated by DVS at 25° C. with a cycle of 40-0-95-0-40% RH, dm/dt 0.002, min. equilibration time 60 min and max. equilibration time 360 min. XRPD was measured after the DVS test to determine form change."}, "[3]": {"conditions": "DVS 25° C., 0% RH, listed as I-4 Form A"}, "[4]": {"conditions": "DVS 25° C., 10% RH, listed as I-4 Form A"}, "[5]": {"conditions": "DVS 25° C., 20% RH, listed as I-4 Form A"}, "[6]": {"conditions": "DVS 25° C., 30% RH, listed as I-4 Form A"}, "[7]": {"conditions": "DVS 25° C., 40% RH, listed as I-4 Form A"}, "[8]": {"conditions": "DVS 25° C., 50% RH, listed as I-4 Form A"}, "[9]": {"conditions": "DVS 25° C., 60% RH, listed as I-4 Form A"}, "[10]": {"conditions": "DVS 25° C., 70% RH, listed as I-4 Form A"}, "[11]": {"conditions": "DVS 25° C., 80% RH, listed as I-4 Form A"}, "[12]": {"conditions": "DVS 25° C., 90% RH, listed as I-4 Form A"}, "[13]": {"conditions": "DVS 25° C., 95% RH, listed as I-4 Form A"}}, "data": [{"smiles": "N#Cc1c(-c2cc(NC(=O)c3cc(F)cc(C(F)(F)F)c3)c3c(c2)C(=O)N[C@H]3c2cc(F)ccc2Cl)ccc2ncnn12", "note": "[Compound I-4]", "values": [{"measurement": "Chiral purity", "setting": "[1]; FaSSIF-V1, pH 6.5, 2 hours", "result": "purity: 98.3%)"}, {"measurement": "Solubility", "setting": "[1]; FaSSIF-V1, pH 6.5, 2 hours", "result": "44.1 μg/mL(chiral"}, {"measurement": "Chiral purity (solids)", "setting": "[1]; FaSSIF-V1, pH 6.5, 24 hours", "result": 99.3, "unit": "%)"}, {"measurement": "Solubility", "setting": "[1]; FaSSIF-V1, pH 6.5, 24 hours", "result": 0.4, "unit": "µg/mL"}, {"measurement": "pH of supernatant", "setting": "[1]; FaSSIF-V1, pH 6.5, 24 hours", "result": 6.15}, {"measurement": "Chiral purity", "setting": "[1]; FeSSIF-V1, pH 5.0, 2 hours", "result": "purity: 97.7%)"}, {"measurement": "Solubility", "setting": "[1]; FeSSIF-V1, pH 5.0, 2 hours", "result": "239.1 μg/mL(chiral"}, {"measurement": "Chiral purity (solids)", "setting": "[1]; FeSSIF-V1, pH 5.0, 24 hours", "result": 85.2, "unit": "%)"}, {"measurement": "Solubility", "setting": "[1]; FeSSIF-V1, pH 5.0, 24 hours", "result": 16.2, "unit": "µg/mL"}, {"measurement": "pH of supernatant", "setting": "[1]; FeSSIF-V1, pH 5.0, 24 hours", "result": 4.84}, {"measurement": "Solubility", "setting": "[1]; MeOH/DCM (1:2, v/v), 2 hours", "result": ">111000", "unit": "µg/mL"}, {"measurement": "Solubility", "setting": "[1]; MeOH/DCM (1:2, v/v), 24 hours", "result": ">111000", "unit": "µg/mL"}, {"measurement": "Solubility", "setting": "[1]; SGF, pH 2.0, 2 hours", "result": 3.2, "unit": "µg/mL"}, {"measurement": "Chiral purity (solids)", "setting": "[1]; SGF, pH 2.0, 24 hours", "result": 99.2, "unit": "%)"}, {"measurement": "Solubility", "setting": "[1]; SGF, pH 2.0, 24 hours", "result": 2.6, "unit": "µg/mL"}, {"measurement": "pH of supernatant", "setting": "[1]; SGF, pH 2.0, 24 hours", "result": 1.89}, {"measurement": "Chiral purity (solids)", "setting": "[1]; Water, 24 hours", "result": 99.2, "unit": "%)"}, {"measurement": "pH of supernatant", "setting": "[1]; Water, 24 hours", "result": 2.52}, {"measurement": "solubility in MeOH/DCM (1:2, v/v)", "setting": "[1]", "result": "> 111", "unit": "mg/mL"}, {"measurement": "Chiral purity (solids)", "setting": "[1]; pH 2, HCl, 24 hours", "result": 99.3, "unit": "%)"}, {"measurement": "pH of supernatant", "setting": "[1]; pH 2, HCl, 24 hours", "result": 1.89}, {"measurement": "1st Desorp. (%)", "setting": "[2]; [3]", "result": 0.01, "unit": "%"}, {"measurement": "2nd Sorp. (%)", "setting": "[2]; [3]", "result": 0.01, "unit": "%"}, {"measurement": "1st Desorp. (%)", "setting": "[2]; [4]", "result": 1.52, "unit": "%"}, {"measurement": "2nd Sorp. (%)", "setting": "[2]; [4]", "result": 0.98, "unit": "%"}, {"measurement": "1st Desorp. (%)", "setting": "[2]; [5]", "result": 2.78, "unit": "%"}, {"measurement": "2nd Sorp. (%)", "setting": "[2]; [5]", "result": 1.76, "unit": "%"}, {"measurement": "1st Desorp. (%)", "setting": "[2]; [6]", "result": 3.61, "unit": "%"}, {"measurement": "2nd Sorp. (%)", "setting": "[2]; [6]", "result": 2.64, "unit": "%"}, {"measurement": "1st Desorp. (%)", "setting": "[2]; [7]", "result": 4.52, "unit": "%"}, {"measurement": "1st Sorp. (%)", "setting": "[2]; [7]", "result": 1.62, "unit": "%"}, {"measurement": "2nd Desorp. (%)", "setting": "[2]; [7]", "result": 4.51, "unit": "%"}, {"measurement": "2nd Sorp. (%)", "setting": "[2]; [7]", "result": 3.57, "unit": "%"}, {"measurement": "1st Desorp. (%)", "setting": "[2]; DVS 25° C., 50% RH", "result": 5.78, "unit": "%"}, {"measurement": "2nd Sorp. (%)", "setting": "[2]; DVS 25° C., 50% RH", "result": 4.63, "unit": "%"}, {"measurement": "1st Sorp. (%)", "setting": "[2]; [8]", "result": 3.50, "unit": "%"}, {"measurement": "2nd Desorp. (%)", "setting": "[2]; [8]", "result": 5.71, "unit": "%"}, {"measurement": "1st Desorp. (%)", "setting": "[2]; DVS 25° C., 60% RH", "result": 7.60, "unit": "%"}, {"measurement": "2nd Sorp. (%)", "setting": "[2]; DVS 25° C., 60% RH", "result": 6.22, "unit": "%"}, {"measurement": "1st Sorp. (%)", "setting": "[2]; [9]", "result": 4.75, "unit": "%"}, {"measurement": "2nd Desorp. (%)", "setting": "[2]; [9]", "result": 7.44, "unit": "%"}, {"measurement": "1st Desorp. (%)", "setting": "[2]; DVS 25° C., 70% RH", "result": 11.14, "unit": "%"}, {"measurement": "2nd Sorp. (%)", "setting": "[2]; DVS 25° C., 70% RH", "result": 9.34, "unit": "%"}, {"measurement": "1st Sorp. (%)", "setting": "[2]; [10]", "result": 6.87, "unit": "%"}, {"measurement": "2nd Desorp. (%)", "setting": "[2]; [10]", "result": 10.54, "unit": "%"}, {"measurement": "1st Desorp. (%)", "setting": "[2]; DVS 25° C., 80% RH", "result": 16.84, "unit": "%"}, {"measurement": "2nd Sorp. (%)", "setting": "[2]; DVS 25° C., 80% RH", "result": 15.03, "unit": "%"}, {"measurement": "1st Sorp. (%)", "setting": "[2]; [11]", "result": 12.16, "unit": "%"}, {"measurement": "2nd Desorp. (%)", "setting": "[2]; [11]", "result": 17.11, "unit": "%"}, {"measurement": "1st Desorp. (%)", "setting": "[2]; DVS 25° C., 90% RH", "result": 31.04, "unit": "%"}, {"measurement": "2nd Sorp. (%)", "setting": "[2]; DVS 25° C., 90% RH", "result": 27.39, "unit": "%"}, {"measurement": "1st Sorp. (%)", "setting": "[2]; [12]", "result": 25.12, "unit": "%"}, {"measurement": "2nd Desorp. (%)", "setting": "[2]; [12]", "result": 32.94, "unit": "%"}, {"measurement": "1st Desorp. (%)", "setting": "[2]; DVS 25° C., 95% RH", "result": 42.35, "unit": "%"}, {"measurement": "2nd Sorp. (%)", "setting": "[2]; DVS 25° C., 95% RH", "result": 44.74, "unit": "%"}, {"measurement": "1st Sorp. (%)", "setting": "[2]; [13]", "result": 42.35, "unit": "%"}, {"measurement": "2nd Desorp. (%)", "setting": "[2]; [13]", "result": 44.74, "unit": "%"}, {"measurement": "XRPD after DVS test", "setting": "[2]; DVS 25° C., cycle 40-0-95-0-40% RH, listed as I-4 Form A", "result": "Form changed"}, {"measurement": "hygroscopicity", "setting": "[2]; DVS at 25° C., listed as I-4 Form A", "result": "very hygroscopic"}, {"measurement": "water absorbed", "setting": "[2]; from 40% RH to 95% RH, 25° C., listed as I-4 Form A", "result": "about 40 % water by weight"}, {"measurement": "form after the DVS test (XRPD)", "setting": "[2]; listed as I-4 Form A", "result": "Form changed"}]}]}
